# According to patent US20260109674A1, “ALLOSTERIC MODULATION OF MUSCARINIC ACETYLCHOLINE RECEPTOR EFFICACY” (The University of Toledo, priority 2022, published 2026):
# Read-outs that look alike come from different tables or passages of the source.
# What was measured:
# [1] = biological target: T1, M1 muscarinic receptors expressed in CHO cells (Homo sapiens, UniProt P11229); experiment: [3H]-arachidonic acid release screen with and without ACh and modulator; assay type: cell-based; conditions: for Modulation of ACh activity (in words): [3H]AA release
# T1 construct: expressed in transfected cells; host or cells: CHO (CHO-hM1, stably transfected)
# T1 sequence (P11229 1-460): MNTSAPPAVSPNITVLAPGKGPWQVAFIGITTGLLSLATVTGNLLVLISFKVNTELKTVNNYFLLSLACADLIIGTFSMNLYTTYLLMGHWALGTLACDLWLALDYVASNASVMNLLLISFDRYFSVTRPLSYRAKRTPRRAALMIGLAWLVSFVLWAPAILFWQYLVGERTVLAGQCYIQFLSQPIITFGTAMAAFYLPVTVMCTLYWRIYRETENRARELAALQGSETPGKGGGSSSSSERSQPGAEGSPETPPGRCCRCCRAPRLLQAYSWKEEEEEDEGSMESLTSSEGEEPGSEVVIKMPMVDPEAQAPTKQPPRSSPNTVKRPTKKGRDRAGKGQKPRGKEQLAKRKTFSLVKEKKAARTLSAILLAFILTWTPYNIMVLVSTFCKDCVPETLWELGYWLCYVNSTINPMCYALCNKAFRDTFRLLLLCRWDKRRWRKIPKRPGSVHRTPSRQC
# Protocol: CHO cells expressing human M1 muscarinic receptors were cultured at 37° C. in a 5% CO2 atmosphere in F12 medium supplemented with 5% fetal bovine serum, 100 units/mL penicillin, and 100 μg/mL streptomycin.
# (§1) Measurement of [^3H]AA release was performed. Stably transfected CHO-hM1 or CHO-hM3 cells were seeded on 24-well plates (Greiner Bio-One GmbH, Frickenhausen, Germany) at a density of 5.0×10^4 cells/well in 0.5 ml of F-12 medium. Cells were incubated until they attached (approximately 3 h), followed by the addition of [^3H]AA to a final concentration of 0.05 μCi of [^3H]AA per well. The cells were then grown for 16 to 20 h before the assay was performed. [^3H]AA release was measured in Eagle's basal medium with 20 mM HEPES and 2 mg/ml fatty acid-free bovine serum albumin (EM-BSA). Cells were rinsed twice with EM-BSA, followed by the addition of EM-BSA media containing experimental agents and incubated for 1 h at 37° C. The assay was terminated by aspiration of the media, and the amount of [^3H]AA released was determined by liquid scintillation counting (Beckman-Coulter LS6500).
# For some assays, pretreatment with phenoxybenzamine (POB) was employed, as indicated, to reduce the number of available receptors per cell. Stock POB was made up at 10 mM in ethanol and stored at −20° C. Each well was pretreated with 0.5 ml of the appropriate concentration in PBS with 1 mM CaCl2 and 1 mM MgCl2 (PBS++) for 30 min at 37° C., followed by 5 washes with PBS++. After pretreatment, the normal protocol was followed as above.
# (§2) Tabulated [^3H]AA release data are represented as a fraction of maximal release in the presence of 100 μM ACh or as the fraction of release elicited by the appropriate concentration of ACh alone, as indicated dose-response curves were normalized to the maximal response of ACh without allosteric ligand. Some response curves were analyzed using the empirical four-parameter equation: […]
# Disintegration per minute (DPM) values for a single compound were obtained in triplicate, and each compound was evaluated on three separate 24-well plates. The mean values for each condition from each of the three 24-well plates were used for the statistical analysis. The baseline mean was subtracted from each value, then normalized to the mean response produced by 100 μM ACh (set at 1.0). Statistical analyses were completed on the normalized values via one-way repeated measures ANOVA with Tukey's post hoc test. Statistically significant differences are noted as follows: *, p<0.05; **, p<0.01; ***, p<0.001.
# [2] = biological target: T1, M1 muscarinic receptors expressed in CHO cells; experiment: Full ACh dose-response curves of [3H]AA release fitted to the allosteric operational model; assay type: cell-based; conditions: for Intrinsic Efficacy-B, τB / Activation cooperativity, A-B, β / Binding cooperativity, A-B, α: allosteric operational model; for Intrinsic Efficacy-B, τB: Em set to 2.0; for Activation cooperativity, A-B, β / Binding cooperativity, A-B, α: with ACh; for Effect on ACh potency and efficacy in full ACh dose-response curves (in words): modulator 10 μM
# Protocol: as §1, §2
# where X is the log of the concentration of the ligand used, Y is the amount of response, C50 is the concentration of the ligand that produces 50% of the maximal effect, Top and Bottom are the top and bottom plateaus of the curve, respectively, and n is related to the Hill slope for the curve. In some cases, families of response curves were analyzed according to the allosteric operational model:
# where EM is the maximal response; A is the concentration of ACh; B is the concentration of the allosteric ligand; τA and τB represent the intrinsic efficacies of A and B, respectively; KA and KB are the equilibrium dissociation constants of A and B, respectively; and α and β represent the cooperativities between A and B in terms of binding and activation, respectively. Curve-fitting was carried out with GraphPad Prism, version 5.0 or 6.0 (San Diego CA).
# [3] = system: wild-type zebrafish larvae; experiment: Maximum tolerated concentration (MTC) determination in zebrafish larvae; assay type: in vivo, Danio rerio
# Protocol: Determination of maximum tolerated concentration was completed by placing 5 days post fertilization (dpf) wild-type zebrafish larvae in a 24 well plate at 6 fish per well, and one compound concentration per well. […] Death was determined by the absence of heartbeat. Additional endpoints were used to assess toxicity at non-lethal concentrations such as startle capacity (poke stimulus), abnormalities in swimming behavior (loss of dorsoventral balance), and gross morphological deformities (bent body). […] The MTC determination was used to select three doses of each compound (low, medium, high dose) to be used in behavioral assays.
# [4] = system: wild-type zebrafish larvae; experiment: General locomotor assay in zebrafish larvae (locomotor activity, repetitive behaviors); assay type: in vivo, Danio rerio; conditions: for response vs control in vivo at 10 µM: Danio rerio, Table 5, 10 μM concentration, N = 12; for Effect on locomotor activity, angular velocity and turn angle (in words): spontaneous swimming period
# Protocol: Five days post fertilization (dpf) zebrafish larvae were exposed to a range of nonlethal concentrations of the compounds in a 24-well plate with appropriate controls. The movement of each larval zebrafish was monitored with the Noldus behavior recording system (Noldus Information Technology, Leesburg VA) and quantified using EthoVision® XT 15 software (Noldus Information Technology, Leesburg VA). The plate was immediately placed in the incubator for a 30-minute exposure period. After 30 minutes, the plate was transferred to the Noldus system and swimming behavior was recorded in 100% light for 30 minutes to measure spontaneous swimming behavior. The light was switched off for 10 minutes (dark period) and then switched on for 10 minutes (light period), which was then repeated for two additional cycles. In total, the larvae were exposed to three cycles of alternating 10-minute dark and light periods (100% darkness-to-100% light). […]
# All data for exposure and the behavioral end points were analyzed by one-way ANOVA (factor: drug conc) followed by a Dunnett's multiple comparisons test for post hoc significance between drug concentration and control group. Statistically significant differences are noted as follows: *, p<0.05; **, p<0.01; ***, p<0.001.
# [5] = 10 μM modulator, 0.1 μM ACh, Table 1
# [6] = 10 μM modulator, 100 μM ACh, Table 1
# [7] = after 24-hour exposure, Table 3
# [8] = 10 μM modulator, 0.1 μM ACh, Table 4, N = 4-5
# [9] = 10 μM modulator, 100 μM ACh, Table 4, N = 4-5
# [10] = 10 μM modulator, Table 4, N = 4-5
# [11] = after 24-hour exposure in separate experiments, Table 5
# [12] = read-out: Variance of Turn Angle
# [13] = Table 3, tested at 1 μM due to toxicity at 10 μM (footnote a)
SMILES,"Ratio of response of ACh with modulator to response of ACh alone, 0.1 μM ACh [1, 5]","Ratio of response of ACh with modulator to response of ACh alone, 100 μM ACh [1, 6]","Stimulation of [3H]AA release, No ACh (fraction of stimulation above the control) ([1]; 10 μM modulator, Table 1)",Modulation of ACh activity (in words) ([1]; modulator 10 μM),"Intrinsic Efficacy-B, τB ([2]; best-fit parameter)","Activation cooperativity, A-B, β ([2]; best-fit parameter)","Binding cooperativity, A-B, α ([2]; best-fit parameter)",Effect on ACh potency and efficacy in full ACh dose-response curves (in words) [2],"Maximum Tolerated Concentration [3, 7]","Ratio of response of ACh with modulator to response of ACh alone, 0.1 μM ACh [1, 8]","Ratio of response of ACh with modulator to response of ACh alone, 100 μM ACh [1, 9]","Stimulation of [3H]AA release, No ACh (fraction of stimulation above the control) [1, 10]","Maximum Tolerated Concentration [3, 11]",response vs control in vivo at 10 µM ([4]; read-out: Angular Velocity),response vs control in vivo at 10 µM ([4]; read-out: Total Distance Moved),"response vs control in vivo at 10 µM [4, 12]","Effect on locomotor activity, angular velocity and turn angle (in words) [4]",also measured
"COc1c(I)cc(CN2C(=O)C(=O)c3ccccc32)cc1I [Compound 8a, 1-(3,5-diiodo-4-methoxybenzyl)indoline-2,3-dione]",2.64 ± 0.10,1.62 ± 0.06,0.24 ± 0.04,significant enhancement of ACh activity,0.174 ± 0.0289,3.26 ± 0.431,0.689 ± 0.241,dramatically enhanced ACh efficacy,30 µM,–,–,–,–,–,–,–,–,"Intrinsic agonist activity (in words) ([1]; modulator 10 μM, without ACh): lacked intrinsic activity at the 10 μM concentration; Affinity-B, KB ([2]; best-fit parameter, values given are logarithms (cf. logKA in footnote)): −6.26 ± 0.152; Kb ([2]; read-out: affinity for M1 muscarinic receptors (KB)): 0.589 µM; Signs of toxicity (in words) ([3]; concentrations up to 30 μM, the highest concentration tested): did not produce any signs of toxicity; Concentration with significant effects on locomotor activity and repetitive behaviors ([4]; compared with BQCA): 1 µM"
COc1c(Br)cc(CN2C(=O)C(=O)c3cc(OC(F)(F)F)ccc32)cc1Br [GK-1-48],–,–,–,–,–,–,–,–,–,3.04 ± 0.47,1.66 ± 0.07,0.15 ± 0.01,3 µM,134 ± 16.5%,80.1 ± 11.7%,109 ± 11.9%,significant increase in angular velocity,–
"CCCCc1oc2ccccc2c1C(=O)c1ccc(O)cc1 [Compound 4, reference compound]",–,–,0.03 ± 0.02,completely inactive,–,–,–,–,0.3 µM,–,–,–,–,–,–,–,–,"Ratio of response of ACh with modulator to response of ACh alone, 0.1 μM ACh [1]: 0.49 ± 0.09; Ratio of response of ACh with modulator to response of ACh alone, 100 μM ACh [1]: 0.72 ± 0.04; Angular Velocity [4, 13]: 105.7 ± 14.8 % of control; Total Distance Moved [4, 13]: 56.7 ± 9.3 % of control; Variance of Turn Angle [4, 13]: 115.8 ± 12.4 % of control"
"COc1cccc(CN2C(=O)C(=O)c3ccccc32)c1 [Compound 8j, 1-(3-methoxybenzyl)indoline-2,3-dione]",1.06 ± 0.15,0.96 ± 0.10,0.02 ± 0.02,–,–,–,–,enhances ACh potency,–,–,–,–,–,–,–,–,significantly decreased locomotor activity and increased angular velocity and absolute turn angle,–
"COc1c(Br)cc(CN2C(=O)C(=O)c3ccccc32)cc1Br [Compound 8c, 1-(3,5-dibromo-4-methoxybenzyl)indoline-2,3-dione]",2.15 ± 0.05,1.58 ± 0.01,0.23 ± 0.00,–,0.328 ± 0.0555,3.89 ± 0.610,0.980 ± 0.388,dramatically enhanced ACh efficacy,30 µM,–,–,–,–,–,–,–,–,"Kb ([2]; best-fit parameter, read-out: Affinity-B, KB (converted)): 2.95 µM"
COc1c(Br)cc(Cn2cc(C(=O)O)c(=O)c3ccccc32)cc1Br [GK-1-50],–,–,–,–,–,–,–,–,–,2.77 ± 0.49,1.11 ± 0.12,0.47 ± 0.10,10 µM,124 ± 21.8%,87.9 ± 10.7%,107 ± 11.2%,–,–
